Results: the NIST ThermoML archive (doi:10.1021/acs.jced.6b00542)
± gives the expanded uncertainty stated by the source.

Test: xn = mol fraction of the nth substance listed
Details: for speed of sound: 100 kPa, Frequency=3 MHz, Sing-around technique in a fixed-path interferometer; for speed of sound / viscosity / mass density: Liquid; for viscosity / mass density: 102 kPa; for viscosity: Concentric cylinders viscometry; for mass density: Vibrating tube method; for surface tension liquid-gas: 294.5 K, Pendant drop shape

CCCCc1ccccc1 [butylbenzene] + CCCCCCCCCCCCCC
Details | mass density [kg/m3] | speed of sound [m/s] | viscosity [mPa·s]
293.15 K, x1 = 0.1414 | 770.92 ± 0.14 | 1330.1 ± 0.9 | 2.06 ± 0.01
293.15 K, x1 = 0.2704 | 779.61 ± 0.14 | 1329.5 ± 0.9 | 1.86 ± 0.01
293.15 K, x1 = 0.3915 | 788.74 ± 0.13 | 1329.7 ± 1 | 1.69 ± 0.01
293.15 K, x1 = 0.4988 | 797.91 ± 0.13 | 1330.9 ± 1 | 1.55 ± 0.01
293.15 K, x1 = 0.5961 | 807.14 ± 0.13 | 1332.5 ± 0.9 | 1.44 ± 0.01
293.15 K, x1 = 0.6892 | 817.1 ± 0.12 | 1334.9 ± 0.9 | 1.34 ± 0.01
293.15 K, x1 = 0.7751 | 827.32 ± 0.12 | 1338.1 ± 0.9 | 1.25 ± 0.01
293.15 K, x1 = 0.8553 | 837.74 ± 0.12 | 1342.1 ± 0.9 | 1.18 ± 0.01
293.15 K, x1 = 0.9299 | 849.02 ± 0.11 | 1347.7 ± 1.1 | 1.12 ± 0.01
293.15 K, x1 = 1 | 860.51 ± 0.11 | 1353.7 ± 0.9 | 1.05 ± 0.01
303.15 K, x1 = 0.1414 | 763.79 ± 0.14 | 1292.6 ± 0.9 | 1.7 ± 0.01
303.15 K, x1 = 0.2704 | 772.41 ± 0.14 | 1292.1 ± 0.9 | 1.54 ± 0.01
303.15 K, x1 = 0.3915 | 781.46 ± 0.13 | 1292.3 ± 0.9 | 1.42 ± 0.01
303.15 K, x1 = 0.4988 | 790.54 ± 0.13 | 1293.4 ± 0.9 | 1.31 ± 0.01
303.15 K, x1 = 0.5961 | 799.68 ± 0.13 | 1294.9 ± 0.9 | 1.22 ± 0.01
303.15 K, x1 = 0.6892 | 809.54 ± 0.12 | 1297.2 ± 0.9 | 1.14 ± 0.01
303.15 K, x1 = 0.7751 | 819.66 ± 0.12 | 1300.2 ± 0.9 | 1.07 ± 0.01
303.15 K, x1 = 0.8553 | 829.96 ± 0.12 | 1303.8 ± 0.9 | 1.02 ± 0.01
303.15 K, x1 = 0.9299 | 841.12 ± 0.12 | 1309.2 ± 1.3 | 0.965 ± 0.007
303.15 K, x1 = 1 | 852.49 ± 0.11 | 1314.9 ± 0.9 | 0.91 ± 0.007
313.15 K, x1 = 0.1414 | 756.65 ± 0.14 | 1255.6 ± 0.9 | 1.42 ± 0.01
313.15 K, x1 = 0.2704 | 765.18 ± 0.14 | 1255.1 ± 0.9 | 1.31 ± 0.01
313.15 K, x1 = 0.3915 | 774.14 ± 0.14 | 1255.3 ± 0.9 | 1.21 ± 0.01
313.15 K, x1 = 0.4988 | 783.14 ± 0.13 | 1256.3 ± 1 | 1.12 ± 0.01
313.15 K, x1 = 0.5961 | 792.18 ± 0.13 | 1257.6 ± 0.9 | 1.05 ± 0.01
313.15 K, x1 = 0.6892 | 801.94 ± 0.13 | 1259.8 ± 0.9 | 0.987 ± 0.007
313.15 K, x1 = 0.7751 | 811.95 ± 0.12 | 1262.7 ± 0.9 | 0.932 ± 0.007
313.15 K, x1 = 0.8553 | 822.15 ± 0.12 | 1266.1 ± 0.9 | 0.886 ± 0.007
313.15 K, x1 = 0.9299 | 833.19 ± 0.12 | 1271.2 ± 1.2 | 0.843 ± 0.007
313.15 K, x1 = 1 | 844.43 ± 0.11 | 1276.6 ± 0.9 | 0.801 ± 0.006
323.15 K, x1 = 0.1414 | 749.49 ± 0.14 | 1219.1 ± 0.9 | 1.21 ± 0.01
323.15 K, x1 = 0.2704 | 757.94 ± 0.14 | 1218.6 ± 0.9 | 1.12 ± 0.01
323.15 K, x1 = 0.3915 | 766.81 ± 0.14 | 1218.7 ± 0.9 | 1.04 ± 0.01
323.15 K, x1 = 0.4988 | 775.71 ± 0.13 | 1219.6 ± 0.9 | 0.973 ± 0.007
323.15 K, x1 = 0.5961 | 784.66 ± 0.13 | 1220.9 ± 0.9 | 0.915 ± 0.007
323.15 K, x1 = 0.6892 | 794.32 ± 0.13 | 1223 ± 0.8 | 0.863 ± 0.007
323.15 K, x1 = 0.7751 | 804.22 ± 0.13 | 1225.6 ± 0.8 | 0.818 ± 0.006
323.15 K, x1 = 0.8553 | 814.31 ± 0.12 | 1228.9 ± 0.8 | 0.78 ± 0.006
323.15 K, x1 = 0.9299 | 825.22 ± 0.12 | 1233.7 ± 1.2 | 0.744 ± 0.006
323.15 K, x1 = 1 | 836.34 ± 0.11 | 1238.7 ± 0.8 | 0.713 ± 0.006
333.15 K, x1 = 0.1414 | 742.31 ± 0.15 | 1183.2 ± 0.9 | 1.05 ± 0.01
333.15 K, x1 = 0.2704 | 750.67 ± 0.14 | 1182.7 ± 0.9 | 0.973 ± 0.007
333.15 K, x1 = 0.3915 | 759.45 ± 0.14 | 1182.7 ± 0.9 | 0.908 ± 0.007
333.15 K, x1 = 0.4988 | 768.25 ± 0.14 | 1183.5 ± 0.9 | 0.853 ± 0.007
333.15 K, x1 = 0.5961 | 777.11 ± 0.13 | 1184.7 ± 0.8 | 0.806 ± 0.006
333.15 K, x1 = 0.6892 | 786.65 ± 0.13 | 1186.6 ± 0.8 | 0.762 ± 0.006
333.15 K, x1 = 0.7751 | 796.45 ± 0.13 | 1189.1 ± 0.8 | 0.725 ± 0.006
333.15 K, x1 = 0.8553 | 806.42 ± 0.13 | 1192.1 ± 0.8 | 0.691 ± 0.006
333.15 K, x1 = 0.9299 | 817.22 ± 0.12 | 1196.7 ± 1.1 | 0.662 ± 0.006
333.15 K, x1 = 1 | 828.21 ± 0.12 | 1201.4 ± 0.8 | 0.636 ± 0.006
343.15 K, x1 = 0.1414 | 735.2 ± 0.2 | – | 0.912 ± 0.007
343.15 K, x1 = 0.2704 | 743.4 ± 0.2 | – | 0.852 ± 0.007
343.15 K, x1 = 0.3915 | 752 ± 0.2 | – | 0.8 ± 0.006
343.15 K, x1 = 0.4988 | 760.8 ± 0.2 | – | 0.753 ± 0.006
343.15 K, x1 = 0.5961 | 769.6 ± 0.2 | – | 0.716 ± 0.006
343.15 K, x1 = 0.6892 | 779 ± 0.2 | – | 0.678 ± 0.006
343.15 K, x1 = 0.7751 | 788.7 ± 0.2 | – | 0.647 ± 0.006
343.15 K, x1 = 0.8553 | 798.5 ± 0.2 | – | 0.619 ± 0.006
343.15 K, x1 = 0.9299 | 809.2 ± 0.2 | – | 0.592 ± 0.006
343.15 K, x1 = 1 | 819.9 ± 0.2 | – | 0.571 ± 0.006
353.15 K, x1 = 0.1414 | 728 ± 0.2 | – | 0.804 ± 0.006
353.15 K, x1 = 0.2704 | 736.1 ± 0.2 | – | 0.754 ± 0.006
353.15 K, x1 = 0.3915 | 744.6 ± 0.2 | – | 0.711 ± 0.006
353.15 K, x1 = 0.4988 | 753.3 ± 0.2 | – | 0.671 ± 0.006
353.15 K, x1 = 0.5961 | 762 ± 0.2 | – | 0.639 ± 0.006
353.15 K, x1 = 0.6892 | 771.3 ± 0.2 | – | 0.608 ± 0.006
353.15 K, x1 = 0.7751 | 780.9 ± 0.2 | – | 0.581 ± 0.006
353.15 K, x1 = 0.8553 | 790.6 ± 0.2 | – | 0.557 ± 0.006
353.15 K, x1 = 0.9299 | 801.1 ± 0.2 | – | 0.534 ± 0.006
353.15 K, x1 = 1 | 811.7 ± 0.2 | – | 0.516 ± 0.006
363.15 K, x1 = 0.1414 | 720.7 ± 0.2 | – | 0.715 ± 0.006
363.15 K, x1 = 0.2704 | 728.7 ± 0.2 | – | 0.674 ± 0.006
363.15 K, x1 = 0.3915 | 737.1 ± 0.2 | – | 0.637 ± 0.006
363.15 K, x1 = 0.4988 | 745.7 ± 0.2 | – | 0.604 ± 0.006
363.15 K, x1 = 0.5961 | 754.3 ± 0.2 | – | 0.576 ± 0.006
363.15 K, x1 = 0.6892 | 763.5 ± 0.2 | – | 0.55 ± 0.006
363.15 K, x1 = 0.7751 | 773 ± 0.2 | – | 0.526 ± 0.006
363.15 K, x1 = 0.8553 | 782.5 ± 0.2 | – | 0.505 ± 0.005
363.15 K, x1 = 0.9299 | 793 ± 0.2 | – | 0.486 ± 0.005
363.15 K, x1 = 1 | 803.4 ± 0.2 | – | 0.469 ± 0.005
373.15 K, x1 = 0.1414 | 713.3 ± 0.2 | – | 0.641 ± 0.006
373.15 K, x1 = 0.2704 | 721.2 ± 0.2 | – | 0.606 ± 0.006
373.15 K, x1 = 0.3915 | 729.5 ± 0.2 | – | 0.575 ± 0.006
373.15 K, x1 = 0.4988 | 738 ± 0.2 | – | 0.547 ± 0.006
373.15 K, x1 = 0.5961 | 746.5 ± 0.2 | – | 0.523 ± 0.006
373.15 K, x1 = 0.6892 | 755.6 ± 0.2 | – | 0.5 ± 0.005
373.15 K, x1 = 0.7751 | 764.9 ± 0.2 | – | 0.48 ± 0.005
373.15 K, x1 = 0.8553 | 774.3 ± 0.2 | – | 0.461 ± 0.005
373.15 K, x1 = 0.9299 | 784.7 ± 0.2 | – | 0.444 ± 0.005
373.15 K, x1 = 1 | 795 ± 0.2 | – | 0.43 ± 0.005

Details | surface tension liquid-gas [mN/m]
x1 = 0.1414 | 26.5 ± 0.4
x1 = 0.2704 | 26.7 ± 0.4
x1 = 0.3915 | 27 ± 0.4
x1 = 0.4988 | 27 ± 0.4
x1 = 0.5961 | 27.3 ± 0.4
x1 = 0.6892 | 27.3 ± 0.4
x1 = 0.7751 | 27.8 ± 0.4
x1 = 0.8553 | 28 ± 0.4
x1 = 0.9299 | 28.3 ± 0.4
